The values below come from article PMC10671431, “New Derivatives of N-Hydroxybutanamide: Preparation, MMP Inhibition, Cytotoxicity, and Antitumor Activity” (International Journal of Molecular Sciences, 2023).

The IC50 is the concentration at which inhibition is half-maximal. Usually inhibition stands for the share of the control response that was lost under treatment. Read a high inhibition as strong suppression.

In one data set the target is T1, MMP-3 (Homo sapiens, UniProt P08254).
T1 construct: the BML- prefix points to Enzo Life Sciences, own knowledge BML-AK308
T1 sequence (P08254 100-272 limits assumed): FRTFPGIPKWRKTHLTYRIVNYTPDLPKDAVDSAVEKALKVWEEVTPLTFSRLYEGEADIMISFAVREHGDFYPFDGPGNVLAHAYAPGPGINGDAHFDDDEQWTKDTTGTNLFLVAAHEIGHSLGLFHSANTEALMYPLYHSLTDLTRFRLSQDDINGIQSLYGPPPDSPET
Nature of the data set: MMP activity assay, fluorogenic substrate (MMP Inhibitor Profiling Kit). In kind it is biochemical. How it is done: (§1) Determination of MMP activity. A fluorescently labeled substrate probe containing a fluorescent label and a fluorescence quencher, was utilized for this study. […] Enzyme activity was assessed using the MMP Inhibitor Profiling Kit (Product # BML-AK308, New York, NY, USA) according to the manufacturer’s recommendations. The nonspecific inhibitor NNGH was used as a positive control. The fluorescence of the fluorogenic substrate OmniMMP^TM RED was measured at wavelengths Ex/Em = 545/576 nm using a Spark 10M multimode plate reader (Tecan, Zurich, Switzerland). Reaction rates were expressed in relative fluorescence units (RFUs) per minute. The activity of MMPs in the presence of the studied compounds was determined as follows:Activity, % = (Vinh/Vcont) × 100,(1) where V is the initial reaction rate (RFUs/min) in the presence (Vinh) and absence (Vcont) of the studied compounds.
(§2) All tested compounds were dissolved in DMSO. The final concentration of DMSO in all samples was 0.1%. Control samples were treated with 0.1% DMSO.

A further data set concerns the target T2, MMP-14 (Homo sapiens, UniProt P50281).
T2 construct: the BML- prefix points to Enzo Life Sciences, own knowledge BML-AK308
The data set is described as above. In kind it is biochemical. How it is done:
as §1, §2

A further data set concerns the target T3, MMP-2 (Homo sapiens, UniProt P08253).
T3 construct: the BML- prefix points to Enzo Life Sciences, own knowledge BML-AK308
The data set is described as above. In kind it is biochemical. How it is done: as §1, §2

The target in another data set is T4, MMP-9 (Homo sapiens, UniProt P14780).
T4 construct: the BML- prefix points to Enzo Life Sciences, own knowledge BML-AK308
T4 sequence (P14780 107-444 limits assumed): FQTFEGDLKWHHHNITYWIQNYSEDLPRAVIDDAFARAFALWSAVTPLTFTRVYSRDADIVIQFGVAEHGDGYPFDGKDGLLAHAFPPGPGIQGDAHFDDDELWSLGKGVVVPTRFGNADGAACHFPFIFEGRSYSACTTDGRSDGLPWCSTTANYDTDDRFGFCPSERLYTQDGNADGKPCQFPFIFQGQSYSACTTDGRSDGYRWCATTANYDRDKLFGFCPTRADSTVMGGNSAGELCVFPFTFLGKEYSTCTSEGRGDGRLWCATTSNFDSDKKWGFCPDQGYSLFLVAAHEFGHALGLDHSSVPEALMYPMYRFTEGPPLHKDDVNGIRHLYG
The data set is described as above. In kind it is biochemical. How it is done:
as §1, §2

A further data set has as its system U-251 MG. Nature of the data set: Cytotoxicity, MTT test. In kind it is cell-based. The conditions noted are these: Homo sapiens, 72 h of exposure. How it is done:
Cell culture. A-172 (human glioblastoma cells), HepG2 (human hepatocellular carcinoma cells), M-HeLa (human cervical adenocarcinoma cells, M subclone), Vero (African green monkey kidney epithelial cells), and FetMSC (human embryonic mesenchymal stem cells) were purchased from the Russian Collection of Cell Cultures of Vertebrates (Institute of Cytology RAS, St. Petersburg, Russia). The U-251 MG cell line (human glioblastoma-astrocytoma) was purchased from the European Collection of Authenticated Cell Cultures (Salisbury, UK). All cells were grown at 37 °C in an atmosphere of 5% CO2. A-172 and Vero cells were cultured in DMEM medium (PanEco, Moscow, Russia). HepG2, HeLa, and U-251 MG cells were cultured in EMEM medium (PanEco). FetMSC cells were cultured in F12/DMEM medium (PanEco). All incubation media were supplemented with 10% fetal calf serum (BioWest, Nuaillé, France), 50 U/mL penicillin, and […] streptomycin (PanEco). Additionally, media for HeLa, HepG2, and U-251 MG cells were supplemented with 2 mM glutamine (PanEco) and 1% essential amino acids (PanEco), media for A-172 and Vero cells were supplemented with 4 mM glutamine, and the medium for FetMSC cells was supplemented with 3 mM glutamine. The medium for U-251 MG cells was additionally supplemented with 1 mM sodium pyruvate (PanEco).
Cytotoxicity studies. The cytotoxicity of the compounds was assessed using the MTT test. Cells were seeded into 96-well plates at varying concentrations of 5 × 10^4 cells/mL (A-172, Vero and HeLa), 7 × 10^4 cells/mL (HepG2 and U-251 MG), and 10 × 10^4 cells/mL (FetMSC). The studied compounds were added to the incubation medium 24 h after seeding at concentrations ranging from 7.8 μM to 500 μM. All compounds were dissolved in DMSO and diluted with the incubation medium to their final concentrations just before use. The incubation medium in wells was aspirated and replaced with medium containing the studied compounds. The final concentration of DMSO in all samples was 0.1%. Control samples were treated with 0.1% DMSO. After 72 h of exposure, 3-(4,5-dimethylthiazol-2-yl)-2,5-diphenyl-2H-tetrazolium bromide (MTT) (Dia-M, Moscow, Russia) was added to the incubation medium at a concentration of 0.5 mg/mL. The resulting MTT-formazan crystals were dissolved in DMSO. The optical density was measured at 570 nm with a background wavelength of 620 nm using a Spark 10M plate reader. IC50 values were determined using a median effect analysis from the dose–effect relationships.
For orientation: Tetrazolium assays rely on reduction of a dye to a coloured formazan, in cell work by metabolically active cells.

For another data set, the system named is B16 melanoma. Nature of the data set: Antimetastatic activity in vivo, lung metastases. The arrangement: species or system mouse. How it is done: Antitumor activity in vivo. The B16 mouse melanoma was used as a tumor model. The B16 melanoma tumor strain was induced in male BDF1 mice by subcutaneous inoculation of 0.2–0.5 mL of a suspension of tumor tissue in medium 199 at intervals of 12–16 days. For the experiments, BDF1 mice were inoculated with 0.3 mL of a suspension of tumor tissue diluted in a 0.9% NaCl solution at a ratio of 1:5 subcutaneously on the right side.
Compound 4 was dissolved in a 0.9% NaCl solution with 1% DMSO. […] Control animals were injected intraperitoneally with 1% DMSO in saline (0.9% NaCl) in the same volumes as the test compounds.
And MNMcont. are the mean number of metastases in the experimental and control groups, respectively.

The next data set deals with BDF1 mice. Nature of the data set: Acute toxicity in vivo. How it is done: Acute toxicity. Experiments involving animals were conducted at the Unique Scientific Unit “Nursery and Vivarium of the FRC PCP MC RAS” in accordance with the rules established by the Commission on Bioethics of the FRC PCP MC RAS (protocol No. 7/22 dated 20 June 2022) and the European Convention for the Protection of Vertebrate Animals for experimental and scientific purposes. Clinically healthy BDF1 hybrid males weighing 20–22 g were utilized. The mice were housed in a conventional vivarium with a 12 h light regime and provided with free access to water and food. Each experimental group consisted of six animals. Compound 4 was dissolved in DMSO and then diluted with 0.9% NaCl to reduce the DMSO concentration to 10%. The solution was administered intraperitoneally at single doses ranging from 200 mg/kg to 1000 mg/kg. The control group received 10% DMSO in 0.9% NaCl intraperitoneally. The animals were monitored daily for 14 days, with attention given to their overall condition, activity, and appetite. At the end of the experiment, all animals were euthanized by inhalation of ether, followed by a pathoanatomical autopsy.

Setting [1] is: concentration of 1 μM (Figure 3).
The mark [2] stands for this setting: lungs, B16 melanoma, BDF1 mice, doses as in Table 5.

“Also recorded” adds a separate entry of the source. Bounds are passed on as bounds.

T3 sequence (P08253 110-446 limits assumed): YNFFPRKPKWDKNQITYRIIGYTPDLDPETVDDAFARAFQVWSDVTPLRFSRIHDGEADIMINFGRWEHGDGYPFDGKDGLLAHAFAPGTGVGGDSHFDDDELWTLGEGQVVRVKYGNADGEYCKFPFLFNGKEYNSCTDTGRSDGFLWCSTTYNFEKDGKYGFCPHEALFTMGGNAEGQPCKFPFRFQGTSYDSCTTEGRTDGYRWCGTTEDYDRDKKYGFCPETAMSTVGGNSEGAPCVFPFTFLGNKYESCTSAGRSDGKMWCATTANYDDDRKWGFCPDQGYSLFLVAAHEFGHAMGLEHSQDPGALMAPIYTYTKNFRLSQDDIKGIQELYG

`O=C(CCC(=O)Nc1ccc(I)cc1)NO` [Compound 4, N^1-hydroxy-N^4-(4-iodophenyl)butanediamide]: the “effect on MMP-3 activity” value on MMP-3 (setting [1]) is on record as “no effect”. Also, on MMP-3 (dose–effect relationship (Figure 4)), the “concentration with significant effect on MMP-3 activity” value was “approximately 10 μM”. Further, the IC50 at MMP-3 (read-out: MMP-inhibiting activity IC50, MMP-3) was more than 10000 nM; at MMP-14 (read-out: MMP-inhibiting activity IC50, MMP-14), 1490 ± 10 nM; on MMP-2 (read-out: MMP-inhibiting activity IC50, MMP-2), 1260 ± 10 nM; at MMP-9 (read-out: MMP-inhibiting activity IC50, MMP-9) it was 1060 ± 10 nM; in the data set with U-251 MG it was 401000 ± 21100 nM. For the same compound, the inhibition at 1 µM on MMP-14 (setting [1]), against MMP-2 (setting [1]) and against MMP-9 (setting [1]) was approximately 50% in each case. In the data set on B16 melanoma (300 mg/kg i.p. days 2–9), the “reduction of the number of animals with metastases in the group” value was determined as 50%. Moreover, the “% Inhibition of Metastases” value with B16 melanoma (setting [2]) is 88.6%. Further, in the data set on B16 melanoma (setting [2]), the “Mean Number of Metastases per Mouse” value came out at 1.3 ± 0.9. In addition, the “Metastasis Rate, %” value with B16 melanoma (setting [2]) was determined as 50%. In addition, the “Number of Animals without Metastases” value with B16 melanoma (of 6 animals in the group, lungs, B16 melanoma, BDF1 mice, doses as in Table 5) came out at 3. Moreover, the toxicity classification result in the data set with BDF1 mice (intraperitoneally, doses up to 1000 mg/kg, classification of [48]) is given as “slightly toxic”. For the same compound, the body weight change result in the data set with BDF1 mice (single i.p. dose 300 mg/kg or lower, 300 mg/kg) was “stable increase in body weight; also recorded: did not impact weight gain”; in the data set on BDF1 mice (single i.p. dose 400 mg/kg), “slower weight gain”; in the data set with BDF1 mice (single i.p. dose 1000 mg/kg, within 7 days, partial recovery on day 14) it was “slight decrease in body weight”; with BDF1 mice (single i.p. doses 600 mg/kg and 800 mg/kg, entire observation period), “No significant changes in body weight”.
